Results: ChEMBL document CHEMBL3352227, “Synthesis, antimycobacterial and antibacterial evaluation of l-[(1R, 2S)-2-fluorocyclopropyl]fluoroquinolone derivatives containing an oxime functional moiety” (Eur J Med Chem, 2014)
Values after ≈ are worked out from the molar mass of the structure shown.

How the values were obtained:
Assay type in all cases: functional
[1] = tested on: Mycobacterium tuberculosis; assay: Antimycobacterial activity against Mycobacterium tuberculosis H37Rv ATCC 27294 by MABA method
[2] = tested on: Escherichia coli; assay: Antibacterial activity against Escherichia coli ATCC 25922 after 18 to 24 hrs by standard twofold serial dilution method
[3] = tested on: Escherichia coli; assay: Antibacterial activity against Escherichia coli 12-1 after 18 to 24 hrs by standard twofold serial dilution method
[4] = tested on: Escherichia coli; assay: Antibacterial activity against extended-spectrum beta-lactamase producing Escherichia coli 12-2 after 18 to 24 hrs by standard twofold serial dilution method
[5] = tested on: Escherichia coli; assay: Antibacterial activity against extended-spectrum beta-lactamase producing Escherichia coli 12-3 after 18 to 24 hrs by standard twofold serial dilution method
[6] = tested on: Escherichia coli; assay: Antibacterial activity against extended-spectrum beta-lactamase producing Escherichia coli 12-14 after 18 to 24 hrs by standard twofold serial dilution method
[7] = tested on: Escherichia coli; assay: Antibacterial activity against extended-spectrum beta-lactamase producing Escherichia coli 12-15 after 18 to 24 hrs by standard twofold serial dilution method
[8] = tested on: Klebsiella pneumoniae; assay: Antibacterial activity against Klebsiella pneumoniae 12-1 after 18 to 24 hrs by standard twofold serial dilution method
[9] = tested on: Klebsiella pneumoniae; assay: Antibacterial activity against Klebsiella pneumoniae 12-2 after 18 to 24 hrs by standard twofold serial dilution method
[10] = tested on: Klebsiella pneumoniae; assay: Antibacterial activity against Klebsiella pneumoniae 12-4 after 18 to 24 hrs by standard twofold serial dilution method
[11] = tested on: Klebsiella pneumoniae; assay: Antibacterial activity against extended-spectrum beta-lactamase producin Klebsiella pneumoniae 12-3 after 18 to 24 hrs by standard twofold serial dilution method
[12] = tested on: Klebsiella pneumoniae; assay: Antibacterial activity against extended-spectrum beta-lactamase producin Klebsiella pneumoniae 12-4 after 18 to 24 hrs by standard twofold serial dilution method
[13] = tested on: Klebsiella pneumoniae; assay: Antibacterial activity against extended-spectrum beta-lactamase producin Klebsiella pneumoniae 12-7 after 18 to 24 hrs by standard twofold serial dilution method
[14] = tested on: Klebsiella pneumoniae; assay: Antibacterial activity against extended-spectrum beta-lactamase producin Klebsiella pneumoniae 12-14 after 18 to 24 hrs by standard twofold serial dilution method
[15] = tested on: Pseudomonas aeruginosa; assay: Antibacterial activity against Pseudomonas aeruginosa 12-12 after 18 to 24 hrs by standard twofold serial dilution method
[16] = tested on: Pseudomonas aeruginosa; assay: Antibacterial activity against Pseudomonas aeruginosa 12-14 after 18 to 24 hrs by standard twofold serial dilution method
[17] = tested on: Staphylococcus aureus; assay: Antibacterial activity against Staphylococcus aureus ATCC 25923 after 18 to 24 hrs by standard twofold serial dilution method
[18] = tested on: Staphylococcus aureus; assay: Antibacterial activity against methicillin-sensitive Staphylococcus aureus 12-1 after 18 to 24 hrs by standard twofold serial dilution method
[19] = tested on: Staphylococcus aureus; assay: Antibacterial activity against methicillin-sensitive Staphylococcus aureus 12-2 after 18 to 24 hrs by standard twofold serial dilution method
[20] = tested on: Staphylococcus aureus; assay: Antibacterial activity against methicillin-sensitive Staphylococcus aureus 12-4 after 18 to 24 hrs by standard twofold serial dilution method
[21] = tested on: Staphylococcus aureus; assay: Antibacterial activity against methicillin-sensitive Staphylococcus aureus 12-5 after 18 to 24 hrs by standard twofold serial dilution method
[22] = tested on: Staphylococcus aureus; assay: Antibacterial activity against methicillin-resistant Staphylococcus aureus 12-2 after 18 to 24 hrs by standard twofold serial dilution method
[23] = tested on: Staphylococcus aureus; assay: Antibacterial activity against methicillin-resistant Staphylococcus aureus 12-4 after 18 to 24 hrs by standard twofold serial dilution method
[24] = tested on: Staphylococcus aureus; assay: Antibacterial activity against methicillin-resistant Staphylococcus aureus 12-5 after 18 to 24 hrs by standard twofold serial dilution method
[25] = tested on: Staphylococcus epidermidis; assay: Antibacterial activity against methicillin-sensitive Staphylococcus epidermidis 12-1 after 18 to 24 hrs by standard twofold serial dilution method
[26] = tested on: Staphylococcus epidermidis; assay: Antibacterial activity against methicillin-sensitive Staphylococcus epidermidis 12-3 after 18 to 24 hrs by standard twofold serial dilution method
[27] = tested on: Staphylococcus epidermidis; assay: Antibacterial activity against methicillin-sensitive Staphylococcus epidermidis 12-6 after 18 to 24 hrs by standard twofold serial dilution method
[28] = tested on: Staphylococcus epidermidis; assay: Antibacterial activity against methicillin-sensitive Staphylococcus epidermidis 12-8 after 18 to 24 hrs by standard twofold serial dilution method
[29] = tested on: Staphylococcus epidermidis; assay: Antibacterial activity against methicillin-resistant Staphylococcus epidermidis 12-1 after 18 to 24 hrs by standard twofold serial dilution method
[30] = tested on: Staphylococcus epidermidis; assay: Antibacterial activity against methicillin-resistant Staphylococcus epidermidis 12-6 after 18 to 24 hrs by standard twofold serial dilution method
[31] = tested on: Streptococcus pneumoniae; assay: Antibacterial activity against Streptococcus pneumoniae ATCC 49619 after 18 to 24 hrs by standard twofold serial dilution method
[32] = tested on: Streptococcus pneumoniae; assay: Antibacterial activity against Streptococcus pneumoniae 12-18 after 18 to 24 hrs by standard twofold serial dilution method

SMILES	MIC [1]	MIC [2]	MIC [3]	MIC [4]	MIC [5]	MIC [6]	MIC [7]	MIC [8]	MIC [9]	MIC [10]	MIC [11]	MIC [12]	MIC [13]	MIC [14]	MIC [15]	MIC [16]	MIC [17]	MIC [18]	MIC [19]	MIC [20]	further results
CO/N=C1/CN(c2c(F)cc3c(=O)c(C(=O)O)cn([C@@H]4C[C@@H]4F)c3c2Cl)CC1CN (stereo partly specified)	4 µg/mL (≈ 9.07 µM)	0.125 µg/mL (≈ 0.284 µM)	1 µg/mL (≈ 2.27 µM)	64 µg/mL (≈ 145 µM)	32 µg/mL (≈ 72.6 µM)	64 µg/mL (≈ 145 µM)	128 µg/mL (≈ 290 µM)	0.25 µg/mL (≈ 0.567 µM)	0.25 µg/mL (≈ 0.567 µM)	0.25 µg/mL (≈ 0.567 µM)	32 µg/mL (≈ 72.6 µM)	16 µg/mL (≈ 36.3 µM)	4 µg/mL (≈ 9.07 µM)	32 µg/mL (≈ 72.6 µM)	1 µg/mL (≈ 2.27 µM)	16 µg/mL (≈ 36.3 µM)	< 0.008 µg/mL	0.125 µg/mL (≈ 0.284 µM)	0.125 µg/mL (≈ 0.284 µM)	0.06 µg/mL (≈ 0.136 µM)	MIC [21]: 0.125 µg/mL (≈ 0.284 µM); MIC [22]: 16 µg/mL (≈ 36.3 µM); MIC [23]: 16 µg/mL (≈ 36.3 µM); MIC [24]: 16 µg/mL (≈ 36.3 µM); MIC [25]: 0.125 µg/mL (≈ 0.284 µM); MIC [26]: 0.5 µg/mL (≈ 1.13 µM); MIC [27]: 0.125 µg/mL (≈ 0.284 µM); MIC [28]: 2 µg/mL (≈ 4.54 µM); MIC [29]: 4 µg/mL (≈ 9.07 µM); MIC [30]: 4 µg/mL (≈ 9.07 µM); MIC [31]: 0.25 µg/mL (≈ 0.567 µM); MIC [32]: 1 µg/mL (≈ 2.27 µM)
CCO/N=C1/CN(c2c(F)cc3c(=O)c(C(=O)O)cn([C@@H]4C[C@@H]4F)c3c2Cl)CC1CN (stereo partly specified)	4 µg/mL (≈ 8.79 µM)	0.5 µg/mL (≈ 1.1 µM)	2 µg/mL (≈ 4.4 µM)	128 µg/mL (≈ 281 µM)	32 µg/mL (≈ 70.4 µM)	128 µg/mL (≈ 281 µM)	> 128 µg/mL	0.5 µg/mL (≈ 1.1 µM)	1 µg/mL (≈ 2.2 µM)	1 µg/mL (≈ 2.2 µM)	32 µg/mL (≈ 70.4 µM)	32 µg/mL (≈ 70.4 µM)	4 µg/mL (≈ 8.79 µM)	64 µg/mL (≈ 141 µM)	4 µg/mL (≈ 8.79 µM)	32 µg/mL (≈ 70.4 µM)	0.5 µg/mL (≈ 1.1 µM)	0.25 µg/mL (≈ 0.55 µM)	0.125 µg/mL (≈ 0.275 µM)	0.25 µg/mL (≈ 0.55 µM)	MIC [21]: 0.25 µg/mL (≈ 0.55 µM); MIC [22]: 16 µg/mL (≈ 35.2 µM); MIC [23]: 16 µg/mL (≈ 35.2 µM); MIC [24]: 16 µg/mL (≈ 35.2 µM); MIC [25]: 0.5 µg/mL (≈ 1.1 µM); MIC [26]: 1 µg/mL (≈ 2.2 µM); MIC [27]: 0.25 µg/mL (≈ 0.55 µM); MIC [28]: 2 µg/mL (≈ 4.4 µM); MIC [29]: 4 µg/mL (≈ 8.79 µM); MIC [30]: 16 µg/mL (≈ 35.2 µM); MIC [31]: 1 µg/mL (≈ 2.2 µM); MIC [32]: 4 µg/mL (≈ 8.79 µM)
NCC1CN(c2c(F)cc3c(=O)c(C(=O)O)cn([C@@H]4C[C@@H]4F)c3c2Cl)C/C1=N/OCc1ccccc1 (stereo partly specified)	16 µg/mL (≈ 31 µM)	0.5 µg/mL (≈ 0.967 µM)	32 µg/mL (≈ 61.9 µM)	> 128 µg/mL	32 µg/mL (≈ 61.9 µM)	> 128 µg/mL	> 128 µg/mL	2 µg/mL (≈ 3.87 µM)	2 µg/mL (≈ 3.87 µM)	2 µg/mL (≈ 3.87 µM)	> 128 µg/mL	32 µg/mL (≈ 61.9 µM)	16 µg/mL (≈ 31 µM)	> 128 µg/mL	8 µg/mL (≈ 15.5 µM)	64 µg/mL (≈ 124 µM)	0.25 µg/mL (≈ 0.484 µM)	0.5 µg/mL (≈ 0.967 µM)	0.5 µg/mL (≈ 0.967 µM)	0.25 µg/mL (≈ 0.484 µM)	MIC [21]: 0.5 µg/mL (≈ 0.967 µM); MIC [22]: 0.5 µg/mL (≈ 0.967 µM); MIC [23]: 0.5 µg/mL (≈ 0.967 µM); MIC [24]: 0.5 µg/mL (≈ 0.967 µM); MIC [25]: 0.5 µg/mL (≈ 0.967 µM); MIC [26]: 1 µg/mL (≈ 1.93 µM); MIC [27]: 0.5 µg/mL (≈ 0.967 µM); MIC [28]: 64 µg/mL (≈ 124 µM); MIC [29]: 0.5 µg/mL (≈ 0.967 µM); MIC [30]: 64 µg/mL (≈ 124 µM); MIC [31]: 1 µg/mL (≈ 1.93 µM); MIC [32]: 8 µg/mL (≈ 15.5 µM)
